Experimental data published in US20020156284A1, “Crystalline form of omeprazole” (priority 1998, published 2002).
“Also recorded” adds a separate entry of the source.

Tests used:
Assay type in all cases: physicochemical
[1] = thermodynamic stability of crystal forms
hygroscopicity = assay: hygroscopicity
[2] = chemical stability (thermo stability and light stability); conditions: compared with omeprazole form B
[3] = compared with omeprazole form B, especially at room temperature

Row | SMILES | conversion into the other crystal form ([1]; under certain conditions) | hygroscopicity (absolute statement) (hygroscopicity) | hygroscopicity (hygroscopicity; [3]) | chemical stability, such as thermo stability and light stability [2] | thermodynamic stability [1, 3]
1 | COc1ccc2[nH]c([S+]([O-])Cc3ncc(C)c(OC)c3C)nc2c1 (centres unmarked) [Omeprazole form B, 5-methoxy-2-[[(4-methoxy-3,5-dimethyl-2-pyridinyl)methyl]sulfinyl]-1H-benzimidazole, reference compound] | completely or partly, be converted into omeprazole form A | – | – | – | –
2 | COc1ccc2[nH]c([S+]([O-])Cc3ncc(C)c(OC)c3C)nc2c1 (centres unmarked) [Omeprazole form A, 5-methoxy-2-[[(4-methoxy-3,5-dimethyl-2-pyridinyl)methyl]sulfinyl]-1H-benzimidazole] | – | essentially non-hygroscopic | less hygroscopic than omeprazole form B | better chemical stability | thermodynamically more stable; also recorded: thermo-dynamically more stable than omeprazole form B
